{
  "source": "patent US20130237556A1",
  "about": "“BERBERINE ALKALOID AS A MEDICAMENT FOR PREVENTION AND TREATMENT OF NEURAL DISEASE” (HONG KONG BAPTIST UNIVERSITY, priority 2012, published 2013)",
  "origin": "cited, not measured here",
  "test_system": "activated microglia",
  "conditions": "ibuprofen-treated animals; cited from earlier work",
  "data": [
    {"smiles": "CC(C)Cc1ccc(C(C)C(=O)O)cc1", "note": "(stereo not shown) [ibuprofen]", "values": [
      {"measurement": "decrease in activated microglia", "value": 57, "unit": "%"}
    ]}
  ]
}
